{"source": "patent US11396497B2", "about": "“Proteasome inhibitors” (New Mexico Tech University Research Park Corporation, priority 2018, dated 2022)", "key": {"[1]": {"test_system": "MCF7 cells", "assay": "MTT assay cytotoxicity MCF7", "details": "read-out: Cytotoxicity MCF7 IC50", "quoted_text": "(§3) The cells were incubated at 37° C. in a humidified atmosphere with 5% CO2.\n(§4) 100 μL of cells were added to each well of a 96 well microtiter plate at a concentration of 4×10^4 cells/mL and incubated overnight to allow proper adhesion. (RPMI 8226 cells were plated at 4×10^5 cells/mL). The cells were treated with the panel of test compounds at a series of concentrations, along with vehicle control DMSO and untreated cells as controls. After 48 h incubation, 20 μL of MTT reagent (3-(4,5-dimethylthiazol-2-yl)-2,5-diphenyltetrazolium bromide) in PBS (5 mg/mL) was added to each well of the plates. The plate was incubated for 2 h at 37° C. For adherent cell lines, the media was removed from each well of the plate and the resulting formazan crystals dissolved in 100 μL of DMSO. For RPMI 8226 cells, 200 ul of DMF/SDS mix (50% DMF. 10% w/v SDS pH<4) was used to solubilize the formazan crystals. Optical density (OD) at 490 nm was measured using a microplate reader. Cells treated with 1 μM phenyl arsine oxide (PAO) served as a positive cell-killing control. Technical replicates of these assays were performed in biological quadruplicate, and the three best values were used for analysis in order to eliminate outliers. Data presented are the average IC50 value calculated from at least 3 technical replicates with the corresponding standard deviation."}, "[2]": {"molecular_target": "T1, chymotrypsin-like activity of the 26S proteasome (Homo sapiens, UniProt P28074)", "T1 construct": "endogenous in cells; host or cells: Jurkat (ATCC TIB-152, E6-1 clone) cell lysate", "T1 sequence (P28074 60-263)": "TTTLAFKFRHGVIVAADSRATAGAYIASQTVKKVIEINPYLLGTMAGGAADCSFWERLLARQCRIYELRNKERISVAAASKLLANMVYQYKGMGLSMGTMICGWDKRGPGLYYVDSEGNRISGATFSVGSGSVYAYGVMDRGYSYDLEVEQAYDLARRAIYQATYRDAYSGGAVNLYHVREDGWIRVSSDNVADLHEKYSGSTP", "assay": "Proteasome assay, chymotrypsin-like (ChT-L) activity, Suc-LLVY-AMC, Jurkat cell lysate", "assay_type": "biochemical", "details": "for IC50: ± S.D., read-out: Proteasome Inhibition ChT-like IC50", "description": "(§1) The lysate was stored at −80° C. until the sample was used for the proteasome assay.\n(§2) The compounds were diluted with lysis buffer; 10 μL of the compound-containing solution was added to the test wells at ten times the final concentration. […] The results are reported as the average of at least 3 technical replicates of IC50 values for proteasome inhibition."}, "[3]": {"test_system": "RPMI 8226 cells", "assay": "MTT assay cytotoxicity RPMI 8226", "details": "read-out: Cytotoxicity RPMI 8226 IC50", "quoted_text": "as §3, §4"}, "[4]": {"test_system": "MDA-MB-231 cells", "assay": "MTT assay cytotoxicity MDA-MB-231", "details": "read-out: Cytotoxicity MDA-MB-231 IC50"}, "[5]": {"molecular_target": "T2, trypsin-like activity of the 26S proteasome (Homo sapiens, UniProt Q99436)", "T2 construct": "endogenous in cells; host or cells: Jurkat (ATCC TIB-152, E6-1 clone) cell lysate", "T2 sequence (Q99436 44-277)": "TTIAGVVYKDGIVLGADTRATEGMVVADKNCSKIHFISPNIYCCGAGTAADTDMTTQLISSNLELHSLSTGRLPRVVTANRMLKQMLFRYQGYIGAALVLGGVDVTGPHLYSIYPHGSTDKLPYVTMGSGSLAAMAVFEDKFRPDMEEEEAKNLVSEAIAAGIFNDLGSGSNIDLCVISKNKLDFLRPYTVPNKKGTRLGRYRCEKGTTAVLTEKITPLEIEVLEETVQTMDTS", "assay": "Proteasome assay, trypsin-like (T-L) activity, SUC-RLR-AMC, Jurkat cell lysate", "assay_type": "biochemical", "description": "as §1, §2"}, "[6]": {"test_system": "RPMI 8226 cells", "quoted_text": "as §3, §4"}, "[7]": {"test_system": "MDA-MB-231 cells"}, "[8]": {"test_system": "MCF7 cells", "quoted_text": "as §3, §4"}, "[9]": {"details": "Table 2, P1 analogues, ± S.D., read-out: Proteasome Inhibition T-L-like IC50"}, "[10]": {"details": "Table 3, P2/P3 analogues, ± S.D., read-out: Proteasome Inhibition T-L-like IC50"}}, "note": "Read-outs that look alike come from different tables or passages of the source."}
{"smiles": "CC(C)C[C@@H]1C(=O)O[C@H]1C(=O)N[C@H](C(=O)N[C@H](C(=O)OCc1ccccc1)C(C)C)C(C)C", "note": "[Compound 9d, Benzyl ((2R,3S)-3-isobutyl-4-oxooxetane-2-carbonyl)-L-valyl-L-valinate]", "values": [{"measurement": "IC50", "setting": "[1]; Homo sapiens, MCF7, 48 h", "result": "~40000", "unit": "nM"}, {"measurement": "IC50", "setting": "[2]; Table 2, P1 analogues", "result": "16 ± 4.7", "unit": "nM"}, {"measurement": "IC50", "setting": "[3]; Homo sapiens, RPMI-8226, 48 h", "result": "19900 ± 8060", "unit": "nM"}, {"measurement": "IC50", "setting": "[4]; Homo sapiens, MDA-MB-231, 48 h", "result": "25300 ± 2940", "unit": "nM"}, {"measurement": "IC50", "setting": "[5]; [9]", "result": "6670 ± 3440", "unit": "nM"}]}
{"smiles": "C=CCCOC(=O)[C@@H](NC(=O)[C@@H](NC(=O)[C@@H]1OC(=O)[C@H]1[C@@H](C)CC)C(C)C)C(C)C", "note": "[Compound 11g, But-3-en-1-yl((2R,3S)-3-((S)-sec-butyl)-4-oxooxetane-2-carbonyl)-L-valyl-L-valinate]", "values": [{"measurement": "IC50", "setting": "[6]", "result": "264 ± 48", "unit": "nM"}, {"measurement": "IC50", "setting": "[7]", "result": "361 ± 43", "unit": "nM"}, {"measurement": "IC50", "setting": "[2]; Table 4, P4 analogues", "result": "8.7 ± 2", "unit": "nM"}, {"measurement": "IC50", "setting": "[8]", "result": "752 ± 384", "unit": "nM"}]}
{"smiles": "CC(C)[C@H](NC(=O)[C@@H]1OC(=O)[C@H]1C1CCCC1)C(=O)N[C@H](C(=O)OCc1ccccc1)C(C)C", "note": "[Compound 9c, Benzyl ((2R,3S)-3-cyclopentyl-4-oxooxetane-2-carbonyl)-L-valyl-L-valinate]", "values": [{"measurement": "IC50", "setting": "[1]; Homo sapiens, MCF7, 48 h", "result": "~25000", "unit": "nM"}, {"measurement": "subunit selectivity, ChT-L over T-L (in words)", "setting": "[2]", "result": "greatest selectivity"}, {"measurement": "IC50", "setting": "[2]; Table 2, P1 analogues", "result": "13.9 ± 0.6", "unit": "nM"}, {"measurement": "IC50", "setting": "[3]; Homo sapiens, RPMI-8226, 48 h", "result": "1980 ± 1000", "unit": "nM"}, {"measurement": "IC50", "setting": "[4]; Homo sapiens, MDA-MB-231, 48 h", "result": "20600 ± 3940", "unit": "nM"}, {"measurement": "IC50", "setting": "[5]; [9]", "result": "10200 ± 3390", "unit": "nM"}]}
{"smiles": "CC(C)[C@H](NC(=O)[C@@H]1OC(=O)[C@H]1C1CCC1)C(=O)N[C@H](C(=O)OCc1ccccc1)C(C)C", "note": "[Compound 9b, Benzyl ((2R,3S)-3-cyclobutyl-4-oxooxetane-2-carbonyl)-L-valyl-L-valinate]", "values": [{"measurement": "IC50", "setting": "[1]; Homo sapiens, MCF7, 48 h", "result": "> 50000", "unit": "nM"}, {"measurement": "IC50", "setting": "[2]; Table 2, P1 analogues", "result": "26.5 ± 7.7", "unit": "nM"}, {"measurement": "IC50", "setting": "[3]; Homo sapiens, RPMI-8226, 48 h", "result": "30400 ± 4750", "unit": "nM"}, {"measurement": "IC50", "setting": "[4]; Homo sapiens, MDA-MB-231, 48 h", "result": "~50000", "unit": "nM"}, {"measurement": "IC50", "setting": "[5]; [9]", "result": "3730 ± 775", "unit": "nM"}]}
{"smiles": "CC[C@H](C)[C@@H]1C(=O)O[C@H]1C(=O)N[C@H](C(=O)N[C@H](C(=O)OCc1ccccc1)C(C)C)C(C)(C)C", "note": "[Compound 10e, Benzyl((S)-2-((2R,3S)-3-((S)-sec-butyl)-4-oxooxetane-2-carboxamido)-3,3-dimethylbutanoyl)-L-valinate]", "values": [{"measurement": "IC50", "setting": "[6]", "result": "1050 ± 750", "unit": "nM"}, {"measurement": "IC50", "setting": "[7]", "result": "1030 ± 644", "unit": "nM"}, {"measurement": "subunit selectivity, ChT-L over T-L (in words)", "setting": "[2]", "result": "enhanced subunit selectivity"}, {"measurement": "IC50", "setting": "[2]; Table 3, P2/P3 analogues", "result": "22.9 ± 2.5", "unit": "nM"}, {"measurement": "IC50", "setting": "[8]", "result": "2140 ± 122", "unit": "nM"}, {"measurement": "IC50", "setting": "[5]; [10]", "result": "5180 ± 1490", "unit": "nM"}]}
{"smiles": "CC[C@H](C)[C@@H]1C(=O)O[C@H]1C(=O)N[C@H](C(=O)N[C@H](C(=O)OCc1ccccc1)C(C)(C)C)C(C)C", "note": "[Compound 10f, Benzyl(S)-2-((S)-2-((2R,3S)-3-((S)-sec-butyl)-4-oxooxetane-2-carboxamido)-3-methylbutanamido)-3,3-dimethylbutanoate]", "values": [{"measurement": "IC50", "setting": "[1]; Homo sapiens, MCF7, 48 h", "result": "1120 ± 332", "unit": "nM"}, {"measurement": "IC50", "setting": "[2]; Table 3, P2/P3 analogues", "result": "15.9 ± 1", "unit": "nM"}, {"measurement": "IC50", "setting": "[3]; Homo sapiens, RPMI-8226, 48 h", "result": "1390 ± 131", "unit": "nM"}, {"measurement": "IC50", "setting": "[4]; Homo sapiens, MDA-MB-231, 48 h", "result": "1110 ± 582", "unit": "nM"}, {"measurement": "IC50", "setting": "[5]", "result": "3710 ± 719", "unit": "nM"}]}
{"smiles": "CC[C@H](C)[C@@H]1C(=O)O[C@H]1C(=O)N[C@@H](Cc1ccccc1)C(=O)N[C@@H](Cc1ccccc1)C(=O)OCc1ccccc1", "note": "[Compound 10d, Benzyl((2R,3S)-3-((S)-sec-butyl)-4-oxooxetane-2-carbonyl)-L-phenylalanyl-L-phenylalaninate]", "values": [{"measurement": "IC50", "setting": "[1]; Table 3, MTT, 48 h", "result": "3620 ± 2500", "unit": "nM"}, {"measurement": "IC50", "setting": "[2]; Table 3, P2/P3 analogues", "result": "12.6 ± 5.7", "unit": "nM"}, {"measurement": "IC50", "setting": "[3]; Table 3, MTT, 48 h", "result": "1280 ± 527", "unit": "nM"}, {"measurement": "IC50", "setting": "[4]; Table 3, MTT, 48 h", "result": "4660 ± 1540", "unit": "nM"}, {"measurement": "IC50", "setting": "[5]; [10]", "result": "3050 ± 1260", "unit": "nM"}]}
{"smiles": "CC[C@H](C)[C@@H]1C(=O)O[C@H]1C(=O)N[C@@H](CC(C)C)C(=O)N[C@H](C(=O)OCc1ccccc1)C(C)C", "note": "[Compound 10h, Benzyl((2R,3S)-3-((S)-sec-butyl)-4-oxooxetane-2-carbonyl)-L-leucyl-L-valinate]", "values": [{"measurement": "IC50", "setting": "[6]", "result": "1780 ± 1020", "unit": "nM"}, {"measurement": "IC50", "setting": "[7]", "result": "2080 ± 651", "unit": "nM"}, {"measurement": "IC50", "setting": "[2]; Table 3, P2/P3 analogues", "result": "4.7 ± 1.8", "unit": "nM"}, {"measurement": "IC50", "setting": "[8]", "result": "2350 ± 458", "unit": "nM"}, {"measurement": "IC50", "setting": "[5]; [10]", "result": "2560 ± 390", "unit": "nM"}]}
